Reference: US6329389A, “Amine compounds, their production and use” (Takeda Chemical Industries, Ltd., priority 1998, dated 2001)
Structures can show the parent of a compound that is named as a salt.

Assays:
[1] = target: human somatostatin receptor protein subtype 4 (hSSTR4); test: Binding inhibition of 125I-somatostatin-14, IC50, SSTR4 membrane fraction; conditions: 125I-somatostatin-14, human SSTR4 CHO cell membrane fraction, 25° C., 60 minutes
[2] = target: T1, rat somatostatin receptor protein subtype 4 (rSSTR4) (Rattus norvegicus, UniProt P30937); test: Binding inhibition of 125I-somatostatin-14, IC50, rat SSTR4 membrane fraction; conditions: 125I-somatostatin-14, rat SSTR4 CHO cell membrane fraction, 25° C., 60 minutes
T1 construct: expressed in transfected cells; host or cells: CHO (dhfr-) cells, strain rSSTR4-20-25
T1 sequence (P30937 whole entry): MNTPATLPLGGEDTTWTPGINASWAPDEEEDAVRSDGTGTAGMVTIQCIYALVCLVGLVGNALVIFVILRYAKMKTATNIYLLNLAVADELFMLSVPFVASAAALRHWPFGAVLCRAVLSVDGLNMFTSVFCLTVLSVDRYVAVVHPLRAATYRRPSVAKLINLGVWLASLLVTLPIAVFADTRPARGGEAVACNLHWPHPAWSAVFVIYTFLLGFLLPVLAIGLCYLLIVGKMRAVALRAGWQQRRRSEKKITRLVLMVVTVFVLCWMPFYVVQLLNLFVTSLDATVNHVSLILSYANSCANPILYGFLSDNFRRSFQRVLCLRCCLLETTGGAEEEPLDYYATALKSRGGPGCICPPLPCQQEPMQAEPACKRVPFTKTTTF

[3] = test system: rat astrocyte; test: Inhibitory effect on forskolin-stimulated accumulation of cAMP in rat astrocyte; assay type: cell-based
Method: Inhibitory effect on forskolin-stimulated accumulation of cAMP in rat astrocyte
For measurement of the accumulated intracellular adenosine 3',5'-monophosphate (cAMP), newborn rat astrocytes prepared in accordance with the method of Mc carthy, K. D. et al. [Cell Biology, 85, 890-920, 1980] were proliferated in 24-well plate until they were confluent. Said cells were washed twice with 1 ml of Medium A [Dulbecco's Modified Eagle Medium (DMEM), 20 mM 2-[4-(2-hydroxyethyl)-1-piperazinyl]ethanesulfonic acid (HEPES) (pH 7.5), 0.2% bovine serum albumin and 0.2 mM 3-isobutyl-1-methylxanthine (IBMX)]. The medium A was placed in wells each in a quantity of 400 μl and incubated at 37° C. for an hour. […] The cells were washed twice with 1 ml of Medium A. 500 μl of Medium A and 100 μl of a 20% aqueous perchloric acid solution were placed in each well and left standing for20 minutes at 4° C. to lyse the cells. The lyzate was placed in an Eppendorf's tube and centrifuged (15.000 rpm, 10 minutes). The supernatant was placed in another Eppendorf's tube in quantity of 500 μl and neutralized with 60 mM of a HEPES aqueous solution containing 1.5 M of potassium chloride. The content of cAMP in this extract was determined by the Amersham kit (cAMP EIA system).

[4] = target: T2, human somatostatin receptor protein subtype 2 (SSTR2) (Homo sapiens, UniProt P30874); test: Binding inhibition of 125I-somatostatin-14, IC50, SSTR2 membrane fraction; conditions: 125I-somatostatin-14, CHO cell membrane fraction, 25° C., 60 minutes
T2 construct: expressed in transfected cells; host or cells: CHO (dhfr-) cells, strain SSTR2-HS5-9
T2 sequence (P30874 whole entry): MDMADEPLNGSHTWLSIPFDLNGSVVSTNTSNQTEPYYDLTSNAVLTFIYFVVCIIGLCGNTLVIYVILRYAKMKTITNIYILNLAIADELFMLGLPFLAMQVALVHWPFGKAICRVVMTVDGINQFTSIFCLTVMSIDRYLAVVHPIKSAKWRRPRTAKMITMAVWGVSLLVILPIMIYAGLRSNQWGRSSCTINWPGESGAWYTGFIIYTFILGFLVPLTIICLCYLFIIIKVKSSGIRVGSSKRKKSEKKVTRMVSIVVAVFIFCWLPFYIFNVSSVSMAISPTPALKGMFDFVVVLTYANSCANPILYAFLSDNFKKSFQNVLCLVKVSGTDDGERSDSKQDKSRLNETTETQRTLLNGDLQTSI

[5] = target: T3, human somatostatin receptor protein subtype 3 (SSTR3) (Homo sapiens, UniProt P32745); test: Binding inhibition of 125I-somatostatin-14, IC50, SSTR3 membrane fraction; conditions: 125I-somatostatin-14, CHO cell membrane fraction, 25° C., 60 minutes
T3 construct: expressed in transfected cells; host or cells: CHO (dhfr-) cells, strain SSTR3-15-19
T3 sequence (P32745 whole entry): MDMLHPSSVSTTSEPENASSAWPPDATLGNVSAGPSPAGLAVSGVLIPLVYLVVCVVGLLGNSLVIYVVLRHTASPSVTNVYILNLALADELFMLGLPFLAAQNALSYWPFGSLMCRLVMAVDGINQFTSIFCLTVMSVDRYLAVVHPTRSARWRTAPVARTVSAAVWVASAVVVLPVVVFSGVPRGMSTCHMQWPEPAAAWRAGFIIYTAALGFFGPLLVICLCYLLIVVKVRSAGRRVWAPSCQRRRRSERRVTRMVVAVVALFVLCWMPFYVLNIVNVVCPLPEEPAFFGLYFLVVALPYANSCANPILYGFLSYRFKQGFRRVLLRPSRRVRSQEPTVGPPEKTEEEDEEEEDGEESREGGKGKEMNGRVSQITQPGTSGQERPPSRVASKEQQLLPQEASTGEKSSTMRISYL

## O=C(CCc1nc(-c2cc3ccccc3o2)no1)N1CC(CN2CCCC2)Cc2ccccc21 (stereo not drawn) [Example 56, 1-[3-(3-(2-Benzofuranyl)-1,2,4-oxadiazol-5-yl]propanoyl]-3-(pirrolidin-1-yl)methyl-1,2,3,4-tetrahydroquinoline oxalate]
[1]
  IC50: 7 nM
[2]
  IC50: 10 nM
[3]; Astrocyte, compound 10 nM, forskolin 10 μM, rat astrocytes, 37° C., an hour, read-out: inhibition of the intracellular accumulation of cAMP at the time of stimulation by forskolin
  inhibition at 0.01 µM: 43%
[3]; conclusion from cAMP test in rat astrocytes
  agonistic effect on the rat somatostatin receptor: has an agonistic effect

## CN(C)CC1Cc2ccccc2N(C(=O)[C@@H](Cc2c[nH]c3ccccc23)NC(=O)N2CCN(c3ccccc3)CC2)C1 (stereo partly drawn) [Example 88, 3-(R,S)-(N,N-Dimethylamino)methyl-1-[3-(indol-3-yl)-2-[(R)-(4-phenylpiperazin-1-yl)]carbonylaminolpropanoyl]-1,2,3,4-tetrahydroquinoline]
[4]
  IC50: 9 nM
[5]
  IC50: 0.8 nM

## CN(C)CC1Cc2ccccc2N(C(=O)[C@@H](Cc2c[nH]c3ccccc23)NC(=O)N2CCC(n3c(=O)[nH]c4ccccc43)CC2)C1 (stereo partly drawn) [Example 89, 3-(R,S)-(N,N-Dimethylamino)methyl-1-[3-(indol-3-yl)-2-[(R)-4-(2-oxo-2,3-dihydro-1H-benzimidazol-1-yl]piperidinocarbonylamino]propanoyl]-1,2,3,4-tetrahydroquinoline]
[4]
  IC50: 3 nM
[5]
  IC50: 2 nM

## Somatostatin-14: Somatostatin-14, the reference peptide in the rat astrocyte cAMP test [reference compound]
[3]; compound 10 nM, forskolin 10 μM, rat astrocytes, 37° C., an hour
  inhibition of the intracellular accumulation of cAMP at the time of stimulation by forskolin: 83%
